For two compounds, mortality results are on record in patent US8664235B2, “6-Halogeno-[1,2,4]triazolo[1,5-a]pyrimidines for combating animal pests” (Merial Limited, priority 2003, dated 2014).

Common to all, as to assay type: in vivo
Test [1] relates to Green Peach Aphid (Myzus persicae). In words: Green peach aphid test, pepper leaves dipped. The note with it: 120 h, read-out: mortality in comparison with untreated controls. As to the method: (§1) Surfactant (Alkamuls EL 620) was added at the rate of 0.1% (vol/vol).
(§2) After the experiments were completed, in each case the lowest concentration was determined at which the compound still caused an 75 to 100% inhibition or mortality in comparison with untreated controls (limit or minimal concentration).
Pepper plants in the 2nd leaf-pair stage (variety ‘California Wonder’) are infested with approximately 40 laboratory-reared aphids by placing infested leaf sections on top of the test plants. The leaf sections are removed after 24 hr. The leaves of the intact plants are dipped into gradient solutions of the test compound. Aphid mortality on the treated plants, relative to mortality on check plants, is determined after 5 days.

Test [2] concerns Twospotted Spider Mite (Tetranychus urticae). In words: Twospotted spider mite test, lima bean foliage dipped. As to conditions: foliar, 120 h, lima bean plants, after 5 days, read-out: mortality in comparison with untreated controls. The procedure:
as §1, §2
Lima bean plants in the 1st leaf-pair stage (variety ‘Henderson’) are infested with approximately 100 laboratory-reared mites per leaf by placing infested leaf sections on top of the test plants. The leaf sections are removed after 24 hr. The foliage of the intact plants is dipped into gradient solutions of the test compound. Mite mortality is determined after 5 days.

The subject of test [3] is Bean Aphid (Aphis fabae). In words: Bean aphid test, nasturtium foliage and stem dipped. The note with it: foliar, 72 h, nasturtium plants, after 3 days, read-out: mortality in comparison with untreated controls. As to the method: as §1, §2
Nasturtium plants in the 1st leaf-pair stage (variety ‘Mixed Jewel’) are infested with approximately 25 laboratory-reared aphids by placing infested cut plants on top of the test plants. The cut plants are removed after 24 hr. The foliage and stem of the test plants are dipped into gradient solutions of the test compound. Aphid mortality is determined after 3 days.

The test system of test [4] is Cotton Aphid (Aphis gossypii). In words: Cotton aphid test, cotyledons dipped in test solution. The note with it: 120 h, cotton plants, after 5 days, read-out: mortality in comparison with untreated controls. As to the method:
as §1, §2
Cotton plants in the cotyledon stage (variety ‘Delta Pine’) are infested with approximately 100 laboratory-reared aphids by placing infested leaf sections on top of the test plants. The leaf sections are removed after 24 hr. The cotyledons of the intact plants are dipped into gradient solutions of the test compound. Aphid mortality on the treated plants, relative to mortality on check plants, is determined after 5 days.

Broadly, the mortality is the percentage killed.

A value given as a limit tells only on which side of the number the result lay.

With `CCc1nc2ncnn2c(N[C@H]2CC[C@@H](C(C)(C)C)CC2)c1Cl` [Example 1, (cis-4-tert-butyl-cyclohexyl)-[6-chloro-5-ethyl-[1,2,4]triazolo[1,5-a]pyrimidin-7-yl]-amine], the mortality at 300 ppm was 100% in test [1], over 75% in test [2], over 75% in test [3] and over 75% in test [4].

For the compound `Cc1nc2ncnn2c(N[C@@H](C)c2ccc(F)cc2)c1Cl` [Example 114, (S)-(6-chloro-5-methyl-[1,2,4]triazolo[1,5-a]pyrimidin-7-yl)-[1-(4-fluorophenyl)-ethyl]-amine], the mortality at 300 ppm in test [1] was 100%; in test [4], over 75%.
